According to patent US11319299B2, “Substituted carboxamides as inhibitors of WDR5 protein-protein binding” (PROPELLON THERAPEUTICS INC., priority 2016, dated 2022):

Target: WDR5 (Homo sapiens (Human), UniProt P61964)
Test: Surface Plasmon Resonance (SPR) assay, KD and residence time
Format: binding
Details: surface plasmon resonance (SPR) assay; read-out: WDR5 binding affinity (KD)

Kd | SMILES
22.9 nM | C[C@@H]1CN(c2cc(F)c(-c3cnc(N4CCOCC4)nc3)cc2NC(=O)c2c(F)cccc2C(F)(F)F)C[C@H](C)N1C [Example 297, 2-fluoro-N-[4-fluoro-5-(2-morpholin-4-ylpyrimidin-5-yl)-2-[(3R,5S)-3,4,5-trimethylpiperazin-1-yl]phenyl]-6-(trifluoromethyl)benzamide]
0.789 nM | C[C@@H]1CN(c2cc(F)c(-c3cnc(N4CCN(C(=O)CCC(=O)O)CC4)nc3)cc2NC(=O)c2c[nH]c(=O)cc2C(F)(F)F)C[C@H](C)N1C [Example 306, 4-[4-[5-[2-fluoro-5-[[6-oxo-4-(trifluoromethyl)-1H-pyridine-3-carbonyl]amino]-4-[(3R,5S)-3,4,5-trimethylpiperazin-1-yl]phenyl]pyrimidin-2-yl]piperazin-1-yl]-4-oxobutanoic acid]
8.49 nM | CCn1cc(C(=O)Nc2cc(-c3cnc(N4CCOCC4)nc3)c(F)cc2N2C[C@@H](C)N(C)[C@@H](C)C2)c(C(F)(F)F)cc1=O [Example 315, 1-ethyl-N-[4-fluoro-5-(2-morpholin-4-ylpyrimidin-5-yl)-2-[(3R,5S)-3,4,5-trimethylpiperazin-1-yl]phenyl]-6-oxo-4-(trifluoromethyl)pyridine-3-carboxamide]
0.722 nM | C[C@@H]1CN(c2cc(F)c(-c3cnc(N4CC(C)(C)OC(C)(C)C4)nc3)cc2NC(=O)c2c[nH]c(=O)cc2C(F)(F)F)C[C@H](C)N1C [Example 320, N-[4-fluoro-2-[(3R,5S)-3,4,5-trimethylpiperazin-1-yl]-5-[2-(2,2,6,6-tetramethylmorpholin-4-yl)pyrimidin-5-yl]phenyl]-6-oxo-4-(trifluoromethyl)-1H-pyridine-3-carboxamide]
63.1 nM | C[C@@H]1CN(c2cc(F)c(-c3cnc(N4CCOCC4)nc3)cc2NC(=O)c2cc(C(F)(F)F)[nH]n2)C[C@H](C)N1C [Example 321, N-[4-fluoro-5-(2-morpholin-4-ylpyrimidin-5-yl)-2-[(3R,5S)-3,4,5-trimethylpiperazin-1-yl]phenyl]-5-(trifluoromethyl)-1H-pyrazole-3-carboxamide]
2.56 nM | C[C@@H]1CN(c2cc(F)c(C3=CCN(c4ncccn4)C3)cc2NC(=O)c2c[nH]c(=O)cc2C(F)(F)F)C[C@H](C)N1C [Example 335, N-[4-fluoro-5-(1-pyrimidin-2-yl-2,5-dihydropyrrol-3-yl)-2-[(3R,5S)-3,4,5-trimethylpiperazin-1-yl]phenyl]-6-oxo-4-(trifluoromethyl)-1H-pyridine-3-carboxamide]
0.551 nM | C[C@@H]1CN(c2ncc(-c3cc(NC(=O)c4c[nH]c(=O)cc4C(F)(F)F)c(N4CCN(C)[C@@H](C)C4)cc3F)cn2)CCO1 [Example 340, N-[4-fluoro-2-[(3S)-3,4-dimethylpiperazin-1-yl]-5-[2-[(2R)-2-methylmorpholin-4-yl]pyrimidin-5-yl]phenyl]-6-oxo-4-(trifluoromethyl)-1H-pyridine-3-carboxamide]
12.4 nM | CCN(C)[C@@H]1CN(c2cc(F)c(-c3cnc(N4CCOCC4)nc3)cc2NC(=O)c2c[nH]c(=O)cc2C(F)(F)F)C[C@H]1F [Example 344, N-[4-fluoro-5-(2-morpholin-4-ylpyrimidin-5-yl)-2-[(3R,4R)-3-[ethyl(methyl)amino]-4-fluoropyrrolidin-1-yl]phenyl]-6-oxo-4-(trifluoromethyl)-1H-pyridine-3-carboxamide]
1.42 nM | C[C@@H]1CN(c2cc(F)c(-c3cnc(N4CCOC(C)(C)C4)nc3)cc2NC(=O)c2c[nH]c(=O)cc2C(F)(F)F)C[C@H](C)N1C [Example 350, N-[5-[2-(2,2-dimethylmorpholin-4-yl)pyrimidin-5-yl]-4-fluoro-2-[(3R,5S)-3,4,5-trimethylpiperazin-1-yl]phenyl]-6-oxo-4-(trifluoromethyl)-1H-pyridine-3-carboxamide]

More lines, now with the values behind:

SMILES | Kd
C[C@@H]1CN(c2cc(F)c(-c3cnc(N4CCOCC4)nc3)cc2NC(=O)c2cc(F)c(F)c(F)c2)C[C@H](C)N1C [Example 296, 3,4,5-trifluoro-N-[4-fluoro-5-(2-morpholin-4-ylpyrimidin-5-yl)-2-[(3R,5S)-3,4,5-trimethylpiperazin-1-yl]phenyl]benzamide] | 21.2 nM
CCCN(C)C1CCN(c2cc(F)c(-c3cnc(N4CCOCC4)nc3)cc2NC(=O)c2c[nH]c(=O)cc2C(F)(F)F)C1 (stereo not drawn) [Example 303, N-[4-fluoro-2-[3-[methyl(propyl)amino]pyrrolidin-1-yl]-5-(2-morpholin-4-ylpyrimidin-5-yl)phenyl]-6-oxo-4-(trifluoromethyl)-1H-pyridine-3-carboxamide] | 1.68 nM
C[C@@H]1CN(c2cc(F)c(C3=CCN(C(=O)CN(C)C)CC3)cc2NC(=O)c2c[nH]c(=O)cc2C(F)(F)F)C[C@H](C)N1C [Example 305, N-[5-[1-[2-(dimethylamino)acetyl]-3,6-dihydro-2H-pyridin-4-yl]-4-fluoro-2-[(3R,5S)-3,4,5-trimethylpiperazin-1-yl]phenyl]-6-oxo-4-(trifluoromethyl)-1H-pyridine-3-carboxamide] | 2.61 nM
C[C@@H]1CN(c2cc(F)c(C3=CCN(C(=O)OC(C)(C)C)CC3)cc2NC(=O)c2cn(C)c(=O)cc2C(F)(F)F)C[C@H](C)N1C [Example 313, tert-butyl 4-[2-fluoro-5-[[-methyl-6-oxo-4-(trifluoromethyl)pyridine-3-carbonyl]amino]-4-[(3R,5S)-3,4,5-trimethylpiperazin-1-yl]phenyl]-3,6-dihydro-2H-pyridine-1-carboxylate] | 3.1 nM
C[C@@H]1CN(c2cc(F)c(-c3ccc(OCC4CC4)nc3)cc2NC(=O)c2c[nH]c(=O)cc2C(F)F)C[C@H](C)N1C [Example 314, N-[5-[6-(cyclopropylmethoxy)pyridin-3-yl]-4-fluoro-2-[(3R,5S)-3,4,5-trimethylpiperazin-1-yl]phenyl]-4-(difluoromethyl)-6-oxo-1H-pyridine-3-carboxamide] | 1.67 nM
C[C@@H]1CN(c2cc(F)c(C3=CCCN(C(=O)OC(C)(C)C)C3)cc2NC(=O)c2c[nH]c(=O)cc2C(F)(F)F)C[C@H](C)N1C [Example 322, tert-butyl 5-[2-fluoro-5-[[6-oxo-4-(trifluoromethyl)-1H-pyridine-3-carbonyl]amino]-4-[(3R,5S)-3,4,5-trimethylpiperazin-1-yl]phenyl]-3,6-dihydro-2H-pyridine-1-carboxylate] | 1.36 nM
C[C@@H]1CN(c2cc(F)c(C3=CCN(C(=O)OC(C)(C)C)C3)cc2NC(=O)c2c[nH]c(=O)cc2C(F)(F)F)C[C@H](C)N1C [Example 323, tert-butyl 3-[2-fluoro-5-[[6-oxo-4-(trifluoromethyl)-1H-pyridine-3-carbonyl]amino]-4-[(3R,5S)-3,4,5-trimethylpiperazin-1-yl]phenyl]-2,5-dihydropyrrole-1-carboxylate] | 2.48 nM
C[C@@H]1CN(c2cc(F)c(C3=CCCN(C(=O)OC(C)(C)C)C3)cc2NC(=O)c2cn(C)c(=O)cc2C(F)(F)F)C[C@H](C)N1C [Example 325, tert-butyl 5-[2-fluoro-5-[[-methyl-6-oxo-4-(trifluoromethyl)pyridine-3-carbonyl]amino]-4-[(3R,5S)-3,4,5-trimethylpiperazin-1-yl]phenyl]-3,6-dihydro-2H-pyridine-1-carboxylate] | 7.3 nM
C[C@@H]1CN(c2cc(F)c(C3=CCN(C(=O)OC(C)(C)C)C3)cc2NC(=O)c2cn(C)c(=O)cc2C(F)(F)F)C[C@H](C)N1C [Example 326, tert-butyl 3-[2-fluoro-5-[[-methyl-6-oxo-4-(trifluoromethyl)pyridine-3-carbonyl]amino]-4-[(3R,5S)-3,4,5-trimethylpiperazin-1-yl]phenyl]-2,5-dihydropyrrole-1-carboxylate] | 3.05 nM
C[C@@H]1CN(c2cc(F)c(C3=CCNC3)cc2NC(=O)c2c[nH]c(=O)cc2C(F)(F)F)C[C@H](C)N1C [Example 329, N-[5-(2,5-dihydro-1H-pyrrol-3-yl)-4-fluoro-2-[(3R,5S)-3,4,5-trimethylpiperazin-1-yl]phenyl]-6-oxo-4-(trifluoromethyl)-1H-pyridine-3-carboxamide] | 4.05 nM
C[C@@H]1CN(c2cc(F)c(C3=CC4CCC(C3)N4)cc2NC(=O)c2c[nH]c(=O)cc2C(F)(F)F)C[C@H](C)N1C (stereo partly drawn) [Example 330, N-[5-(8-azabicyclo[3.2.1]oct-2-en-3-yl)-4-fluoro-2-[(3R,5S)-3,4,5-trimethylpiperazin-1-yl]phenyl]-6-oxo-4-(trifluoromethyl)-1H-pyridine-3-carboxamide] | 5.74 nM
C[C@@H]1CN(c2cc(F)c(C3=CC4CCC(C3)N4c3ncccn3)cc2NC(=O)c2c[nH]c(=O)cc2C(F)(F)F)C[C@H](C)N1C (stereo partly drawn) [Example 336, N-[4-fluoro-5-(8-pyrimidin-2-yl-8-azabicyclo[3.2.1]oct-2-en-3-yl)-2-[(3R,5S)-3,4,5-trimethylpiperazin-1-yl]phenyl]-6-oxo-4-(trifluoromethyl)-1H-pyridine-3-carboxamide] | 12.5 nM
C[C@@H]1CN(c2cc(F)c(C3CN=C(N4CCOCC4)NC3)cc2NC(=O)c2c[nH]c(=O)cc2C(F)(F)F)C[C@H](C)N1C (stereo partly drawn) [Example 339, N-[4-fluoro-5-(2-morpholin-4-yl-1,4,5,6-tetrahydropyrimidin-5-yl)-2-[(3R,5S)-3,4,5-trimethylpiperazin-1-yl]phenyl]-6-oxo-4-(trifluoromethyl)-1H-pyridine-3-carboxamide] | 275 nM
C[C@@H]1CN(c2cc(F)c(-c3cnc(N4CCOCC4)nc3)cc2NC(=O)c2cn(C)c(=O)cc2C(F)F)C[C@H](C)N1C [Example 342, 4-(difluoromethyl)-N-[4-fluoro-5-(2-morpholin-4-ylpyrimidin-5-yl)-2-[(3R,5S)-3,4,5-trimethylpiperazin-1-yl]phenyl]-1-methyl-6-oxopyridine-3-carboxamide] | 6.87 nM
CCN(C)[C@@H]1CCN(c2cc(F)c(-c3cnc(N4CCOCC4)nc3)cc2NC(=O)c2c[nH]c(=O)cc2C(F)(F)F)C1 [Example 345, N-[4-fluoro-5-(2-morpholin-4-ylpyrimidin-5-yl)-2-[(3R)-3-[ethyl(methyl)amino]pyrrolidin-1-yl]phenyl]-6-oxo-4-(trifluoromethyl)-1H-pyridine-3-carboxamide] | 1.2 nM
